Laboratory results reported in patent US8653022B2, “Use of ghrelin splice variant for treating hypercholesterolemia and/or high cholesterol and/or high cholesterol complication and/or lipemia and/or lipemia complication and/or coronary heart disease and/or weight management and/or diabetes and/or hyperglycemia” (priority 2006, dated 2014).
Ends that are not written are not given here. * marks the point of attachment. Octanoyl = CCCCCCCC(=O)*

Columns and labels:
[1] = Serum cholesterol and lipid levels (cholesterol, triglycerides, LDL, HDL) after subcutaneous administration in 129Sv mice; type: in vivo; settings: 129Sv male mice, subcutaneous once daily, n=10 per group; for Reduced levels of cholesterol (serum cholesterol concentration): compared to vehicle-administered controls
Text: FIG. 1A is a bar graph showing serum cholesterol concentration after subcutaneous administration of acylated ghrelin splice variant (acylated SEQ ID NO:2) or un-acylated ghrelin splice variant (SEQ ID NO:2) compared to SEQ ID NO:3 and vehicle-administered controls in 129Sv mice. Reduced levels of cholesterol in the acylated ghrelin splice variant (acylated SEQ ID NO:2) and un-acylated ghrelin splice variant (SEQ ID NO:2) treated groups were observed (5% & 6%, respectively).
(§1) Acylated ghrelin splice variant (20 μg; 29 amino acids in length (SEQ ID NO:2)) or the Vehicle (1.6% mannitol) was administered once daily for 14 successive days, via the subcutaneous (SC) route, to groups comprising n=10 129Sv male mice. No mortality occurred in any of the animals throughout the entire study period. […] All animals were subjected to terminal bleeding, under CO2 anesthesia, immediately prior to euthanasia. Terminal blood collection was performed serially as per animal number, and not as per group. • Hematology: Blood samples (at least 100 μl) were collected into pre-labeled EDTA coated tubes. The tubes were pre-labeled and contain the following information:
Study number, group number, animal number and date. The samples were kept until delivery and analysis at 2-8 ° C. Hematology parameters that were tested using Sysmex KX-21™are: WBC, RBC, HGB, HCT, MCV, MCH, MCHC, Platelets. Differential count was preformed manually. • Biochemistry: Blood for biochemistry analysis was collected into non-coated pre-labeled tubes. The tubes were pre-labeled and contained the following information: Study number, group number, animal number and date. Following clotting, the blood from each animal was centrifuged, and the serum was collected into two pre-labeled tubes and submitted for analysis as follows: Serum, 250 μl, was kept at 2-8° C. until analysis. The samples were subjected to the following listed tests using Hitachi 917 system: Creatinine, Total bilirubin, Glucose, Triglycerides, Cholesterol, HDL, LDL, Total protein, Globulin, Albumin, Urea, Potassium, Phosphorus, Calcium, Sodium, Chloride, sGOT, SGPT, ALP. • Urinalysis: Urine was collected into pre-labeled tubes (as above) from all animals (where possible) prior to and/or after euthanasia. For all surviving animals, urine collection was performed serially as per animal number, and not as per group. An attempt was made to attain the maximal amount as possible to perform the tests listed below. Urinalysis is performed using a commercial test stick (Bayer, Multistix® 10SG) applied to urine sample and evaluating the following parameters: glucose, ketone, pH value, leukocytes, blood, density, nitrite, bilirubin, urobilinogen and protein. • Necropsy Procedures and Macroscopic Examination: All animals were subjected to a fully detailed necropsy. For all surviving animals, necropsy was performed serially as per animal number, and not as per group, immediately following the scheduled terminal bleeding. At necropsy, a thorough examination is made and any abnormality or gross pathological changes in tissues and/or organs are observed and recorded. • Organ/Tissue Collection: The organs and tissues listed (Brain, Liver, Kidney, Stomach, Pancreas, Lungs, Spleen, Heart, Epididymal WAT, Retroperitoneal WAT, Interscapular BAT) were excised and weighed wet as soon as possible after excision and removal of the attached fat and other connective tissues. All organs from one animal were collected into one container, pre-labeled with the following information: Study number, group number, animal number and date. • Results: Reduced levels of cholesterol in the acylated ghrelin splice variant and un-acylated ghrelin splice variant treated groups were observed (5% & 6%, respectively; See FIG. 1A). Reduced levels of HDL in the acylated ghrelin splice variant and un-acylated ghrelin splice variant treated groups (5% & 6%, respectively; see FIG. 1B).

[2] = Plasma glucose level after 7 day treatment in 129Sv mice; type: in vivo; settings: 129 male mice, 7.2 mg/kg peptide, end of study
Text: FIG. 3A is a bar graph showing percentage of plasma glucose reduction after 7 day treatment with acylated ghrelin splice variant peptides (acylated SEQ ID NO:2, SEQ ID NO:3 and SEQ ID NO:4) or ghrelin in 129Sv mice. The percent reduction is 3.2%; 2% and 4.8% respectively while treatment with ghrelin increased plasma glucose level by 1.3%.
FIG. 3B is a bar graph showing plasma glucose levels after 7 day treatment with acylated ghrelin splice variant peptides (acylated SEQ ID NO:2, SEQ ID NO:3 and SEQ ID NO:4) or ghrelin. 129 male mice were treated for seven days with 7.2 mg/kg peptide. Plasma glucose levels were measured at the end of the study.

[3] = Cumulative body weight gain after once-daily subcutaneous treatment in 129Sv mice; type: in vivo; settings: male wild-type 129Sv mice, once daily for seven days, 72 mg/kg subcutaneously, n=8 per group
Experimental: FIG. 2 is a line graph showing cumulative body weight gain of un-acylated ghrelin splice variant-treated (SEQ ID NO:2) 129Sv mice compared to vehicle-treated controls. Un-acylated ghrelin splice variant reduces body weight gain in male wild-type mice (n=8 per group). In mice treated once daily for seven days with un-acylated ghrelin splice variant (72 mg/kg, subcutaneously), cumulative weight gain of the SEQ ID NO:2 group was 25% times less than the vehicle-injected control animals.

[4] = Mortality and clinical signs during subcutaneous administration study; type: in vivo, 129Sv mice; settings: 20 μg once daily for 14 successive days, 129Sv male mice, n=10
Experimental: as §1, with “information: […]” for “information:”

GSS (CO-C7H15) FLSPEHQRVQVRPPHKAPH (GSS(Octanoyl)FLSPEHQRVQVRPPHKAPH; listed as Homo sapiens) [SEQ ID NO:3, 22 amino acid human ghrelin splice variant, acylated]
Increased levels of triglycerides ([1]; compared to vehicle): 15%
Percentage of plasma glucose reduction [2]: 2%

GSSFLSPEHQRVQVRPPHKAPHVV (also: acylated (site not given here); listed as Homo sapiens) [SEQ ID NO:4, acylated 24 amino acid human ghrelin splice variant]
Percentage of plasma glucose reduction [2]: 4.8%

GSSFLSPEHQRVQVRPPHKAPHVVPALPL (listed as Homo sapiens) [un-acylated ghrelin splice variant, 29 amino acid human ghrelin splice variant, un-acylated]
Level of triglycerides (in words) ([1]; compared to vehicle): remained unchanged
Reduced levels of HDL ([1]; compared to vehicle): 6%
Reduced levels of cholesterol (serum cholesterol concentration) [1]: 6%
Cumulative weight gain less than the vehicle-injected control animals [3]: 25%

GSSFLSPEHQRVQVRPPHKAPHVVPALPL (not fully specified; listed as Homo sapiens) [acylated SEQ ID NO:2, 29 amino acid human ghrelin splice variant, acylated]
Increased levels of triglycerides ([1]; compared to vehicle): 9%
LDL levels (in words) ([1]; compared to vehicle): remained unchanged
Reduced levels of HDL ([1]; compared to vehicle, listed as acylated ghrelin splice variant): 5%
Reduced levels of cholesterol (serum cholesterol concentration) ([1]; listed as acylated ghrelin splice variant): 5%
Percentage of plasma glucose reduction [2]: 3.2%
Clinical signs [4]: No clinical signs
Mortality [4]: No mortality

ghrelin: polypeptide of GenBank NP_057446; mature 28 amino acid peptide bearing n-octanoyl on the third serine (GSS(Octanoyl)FLSPEHQRVQQRKESKKPPAKLQPR; UniProt Q9UBU3 24-51, looked up) [reference compound]
Increase of plasma glucose level [2]: 1.3%
